Reference: patent publication US7323485B2, “4-(substituted cycloalkylmethyl) imidazole-2-thiones, 4-(substituted cycloalkenylmethyl) imidazole-2-thiones, 4-(substituted cycloalkylmethyl) imidazol-2-ones and 4-(substituted cycloalkenylmethyl) imidazol-2-ones and related compounds” (Allergan, Inc., priority 2002, dated 2008)
pEC50: −log10 of the molar value.

Legend:
[1] = target: T1, alpha2C adrenergic receptors (Homo sapiens, UniProt P18825); assay: Receptor Selection and Amplification Technology (RSAT) assay, alpha2C; type: cell-based; conditions: for pEC50: NA = not active at concentrations less than 10 micromolar, read-out: Alpha 2C EC50; for Alpha 2C intrinsic activity: fraction of maximal effect of standard full agonist brimonidine (UK14304)
T1 construct: expressed in transfected cells; host or cells: NIH-3T3
T1 sequence (P18825 1-462): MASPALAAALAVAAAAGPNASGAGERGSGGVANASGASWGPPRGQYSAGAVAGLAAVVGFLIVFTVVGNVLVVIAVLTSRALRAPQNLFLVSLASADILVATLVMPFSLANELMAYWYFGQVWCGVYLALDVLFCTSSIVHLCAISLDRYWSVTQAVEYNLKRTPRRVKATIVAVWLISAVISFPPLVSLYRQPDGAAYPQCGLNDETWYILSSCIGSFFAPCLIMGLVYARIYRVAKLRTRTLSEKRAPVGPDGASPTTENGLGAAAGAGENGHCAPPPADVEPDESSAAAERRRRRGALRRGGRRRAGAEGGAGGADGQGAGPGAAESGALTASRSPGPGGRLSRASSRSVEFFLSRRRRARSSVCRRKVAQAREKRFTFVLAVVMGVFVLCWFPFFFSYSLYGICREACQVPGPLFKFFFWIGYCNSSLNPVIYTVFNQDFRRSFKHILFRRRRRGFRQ
Excerpt: (§1) The imidazole-2-thione compounds of the invention are agonists of alpha2 adrenergic receptors, particularly they tend to be specific or selective agonists of alpha2B and/or to a lesser extent alpha2C adrenergic receptors, in preference over alpha2A adrenergic receptors. […] Al., 1995, Pharmacol. Toxicol. 76, pp. 308-311 (incorporated herein by reference) and is also described below. Another reference pertinent to this assay is Conklin et al. (1993) Nature 363:274-6, also incorporated herein by reference.
(§2) Receptor Selection and Amplification Technology (RSAT) Assay
(§3) The RSAT assay measures a receptor-mediated loss of contact inhibition that results in selective proliferation of receptor-containing cells in a mixed population of confluent cells. The increase in cell number is assessed with an appropriate transfected marker gene such as β-galactosidase, the activity of which can be easily measured in a 96-well format. Receptors that activate the G protein, Gq, elicit this response. Alpha2 receptors, which normally couple to Gi, activate the RSAT response when coexpressed with a hybrid Gq protein that has a Gi receptor recognition domain, called Gq/i5.
(§4) NIH-3T3 cells are plated at a density of 2×10^6 cells in 15 cm dishes and maintained in Dulbecco's modified Eagle's medium supplemented with 10% calf serum. One day later, cells are cotransfected by calcium phosphate precipitation with mammalian expression plasmids encoding p-SV-β-galactosidase (5-10 μg), receptor (1-2 μg) and G protein (1-2 μg). 40 μg salmon sperm DNA may also be included in the transfection mixture. Fresh media is added on the following day and 1-2 days later, cells are harvested and frozen in 50 assay aliquots. Cells are thawed and 100 μl added to 100 μl aliquots of various concentrations of drugs in triplicate in 96-well dishes. Incubations continue 72-96 hr at 37 EC. After washing with phosphate-buffered saline, β-galactosidase enzyme activity is determined by adding 200 μl of the chromogenic substrate (consisting of 3.5 mM o-nitrophenyl-β-D-galactopyranoside and 0.5% nonidet P-40 in phosphate buffered saline), incubating overnight at 30 EC and measuring optical density at 420 nm. The absorbance is a measure of enzyme activity, which depends on cell number and reflects a receptor-mediated cell proliferation. The EC50 and maximal effect of each drug at each alpha2 receptor is determined. The efficacy or intrinsic activity is calculated as a ratio of the maximal effect of the drug to the maximal effect of a standard full agonist for each receptor subtype. Brimonidine, also called UK14304, the chemical structure of which is shown below, is used as the standard agonist for the alpha2A, alpha2B and alpha2C receptors.
(§5) The results of the RSAT assay with several exemplary compounds of the invention are disclosed in Table 1 above together with the chemical formulas of these examplary compounds. […] NA stands for “not active” at concentrations less than 10 micromolar. As is known EC50 is the concentration at which half of a given compound's maximal activity is observed.

[2] = target: T2, alpha2B adrenergic receptors (Homo sapiens, UniProt P18089); assay: Receptor Selection and Amplification Technology (RSAT) assay, alpha2B; type: cell-based; conditions: for pEC50: NA = not active at concentrations less than 10 micromolar, read-out: Alpha 2B EC50; for Alpha 2B intrinsic activity: fraction of maximal effect of standard full agonist brimonidine (UK14304)
T2 construct: expressed in transfected cells; host or cells: NIH-3T3
T2 sequence (P18089 1-450): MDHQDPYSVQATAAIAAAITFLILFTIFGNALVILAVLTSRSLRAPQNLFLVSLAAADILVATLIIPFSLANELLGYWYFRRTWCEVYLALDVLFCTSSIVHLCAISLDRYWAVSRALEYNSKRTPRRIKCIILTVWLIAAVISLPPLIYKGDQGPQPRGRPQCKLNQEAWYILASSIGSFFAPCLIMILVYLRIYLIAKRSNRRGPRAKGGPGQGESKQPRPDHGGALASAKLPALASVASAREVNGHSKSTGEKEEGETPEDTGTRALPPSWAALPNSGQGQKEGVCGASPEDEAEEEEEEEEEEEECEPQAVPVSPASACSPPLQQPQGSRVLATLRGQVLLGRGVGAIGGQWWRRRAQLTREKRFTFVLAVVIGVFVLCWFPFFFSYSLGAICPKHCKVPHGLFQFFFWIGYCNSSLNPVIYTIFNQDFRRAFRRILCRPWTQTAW
Excerpt: as §1, §2, §3, §4, §5

Row | Structure (SMILES) | pEC50 [1] | Alpha 2C intrinsic activity [1] | pEC50 [2] | Alpha 2B intrinsic activity [2]
1 | S=c1[nH]cc(CC2CCCc3ccccc32)[nH]1 (centres unmarked) | 6.86 | 0.42 | 7.62 | 0.93
2 | CC1=CCCCC1Cc1c[nH]c(=S)[nH]1 (centres unmarked) | 6.17 | 1.13 | 7.07 | 1.07
3 | CCC1=CCCCC1Cc1c[nH]c(=S)[nH]1 (centres unmarked) | 6.48 | 1.0 | 6.79 | 1.0
4 | CC1Cc2ccccc2C1Cc1c[nH]c(=S)[nH]1 (centres unmarked) | < 5.70 | 0.57 | 6.24 | 1.1
5 | CC1CC(Cc2c[nH]c(=S)[nH]2)c2ccccc21 (centres unmarked) | 5.99 | 1.39 | 7.48 | 1.01
6 | S=c1[nH]cc(CC2C=CCCC2)[nH]1 (centres unmarked) | < 5.70 | 0.70 | 6.18 | 1.12
7 | Cc1cccc2c1CCC2Cc1c[nH]c(=S)[nH]1 (centres unmarked) | 6.03 | 0.34 | 7.24 | 0.93
8 | Fc1ccc2c(c1)CCC2Cc1c[nH]c(=S)[nH]1 (centres unmarked) | 5.95 | 0.52 | 7.39 | 0.97
9 | COc1ccc2c(c1)CCC2Cc1c[nH]c(=S)[nH]1 (centres unmarked) | < 5.70 | 0.46 | 5.80 | 0.68
10 | S=c1[nH]cc(CC2CCc3cc(Br)ccc32)[nH]1 (centres unmarked) | – | 0.62 | 6.80 | 0.85
11 | Cc1ccc2c(c1)C(Cc1c[nH]c(=S)[nH]1)CC2 (centres unmarked) | 6.46 | 0.69 | 7.72 | 0.92
12 | COc1ccc2c(c1)C(Cc1c[nH]c(=S)[nH]1)CC2 (centres unmarked) | 6.86 | 1.0 | 7.52 | 0.94
13 | CC(C)CC1=CCCC1Cc1c[nH]c(=S)[nH]1 (centres unmarked) | 6.18 | 0.75 | 6.59 | 1.0
14 | C=CC1=CCCC1Cc1c[nH]c(=S)[nH]1 (centres unmarked) | < 5.70 | 0.57 | 6.37 | 1.11
15 | CC=CC1=CCCC1Cc1c[nH]c(=S)[nH]1 (centres unmarked) | 5.61 | 0.72 | 5.79 | 0.88
16 | CC1CC(Cc2c[nH]c(=S)[nH]2)C(=O)c2ccccc21 (centres unmarked) | < 5.70 | 0.61 | 6.28 | 0.96
17 | Cc1cccc2c1C(=O)C(Cc1c[nH]c(=S)[nH]1)CC2 (centres unmarked) | 7.18 | 0.47 | 7.54 | 0.96
18 | O=C1c2c(CO)cccc2CCC1Cc1c[nH]c(=S)[nH]1 (centres unmarked) | 6.51 | 0.34 | 6.79 | 0.95
19 | O=C1c2c(F)cccc2CCC1Cc1c[nH]c(=S)[nH]1 (centres unmarked) | 6.97 | 0.35 | 6.76 | 0.76
20 | S=c1[nH]cc(C[C@H]2CCc3ccccc32)[nH]1 | 7.19 | 0.56 | 8.12 | 0.95
21 | S=c1[nH]cc(CC2CCC=C2c2cccs2)[nH]1 (centres unmarked) | 6.21 | 0.42 | 6.63 | 0.53
22 | CCC1=C(c2ccc(F)cc2)C(Cc2c[nH]c(=S)[nH]2)CC1 (centres unmarked) | 7.40 | 0.52 | 6.99 | 0.97
23 | CCCC1=C(c2ccc(F)cc2)C(Cc2c[nH]c(=S)[nH]2)CC1 (centres unmarked) | 7.24 | 0.5 | 6.22 | 0.98
24 | Fc1ccc(C2=C(C3CC3)CCC2Cc2c[nH]c(=S)[nH]2)cc1 (centres unmarked) | 8.05 | 0.45 | 7.49 | 0.9
25 | CC1=C(c2ccc(F)cc2)C(Cc2c[nH]c(=S)[nH]2)CCC1 (centres unmarked) | 7.46 | 0.82 | 7.65 | 0.97
26 | CC1=C(c2ccc(C#N)cc2)C(Cc2c[nH]c(=S)[nH]2)CC1 (centres unmarked) | 7.39 | 0.85 | 7.66 | 0.93
27 | CC1=C(c2ccc([N+](=O)[O-])cc2)C(Cc2c[nH]c(=S)[nH]2)CC1 (centres unmarked) | 7.04 | – | 7.68 | –
28 | CC1=C(c2cc(F)cc(F)c2)C(Cc2c[nH]c(=S)[nH]2)CC1 (centres unmarked) | 7.33 | 1.11 | 6.94 | 0.89
29 | CC1=C(c2ccc(F)cc2)C(Cc2c[nH]c(=S)[nH]2)CC1 (centres unmarked) | 7.66 | 0.95 | 7.29 | 0.78
